For this test, the system named is mit Crotonöl induzierten Rattenohroedems. The test is described as follows: Croton oil-induced rat ear oedema, method of Tonelli and Thibault, local application. It counts as in vivo, Normalratte. The settings on record: inhibition of croton oil-induced rat ear oedema in the normal rat. As to the method:
Diese Eigenschaft lässt sich beispielsweise nach der von G. Tonelli, L. Thibault, Endocrinology 77, 625 (1965) entwickelten Methode durch Hemmung des mit Crotonöl induzierten Rattenohroedems bei der Normalratte im Dosisbereich von etwa 1 bis etwa 100 mg/ml nachweisen.

Molecules are shown by their SMILES. ≈ marks a conversion by molar mass, not a printed value.

Regarding `CCOC(=O)Cc1nc(-c2ccccc2)c(-c2cccnc2)[nH]1` [2-[4-Phenyl-5-(3-pyridyl)-imidazol-2-yl]-essigsäureethylester], the ED50-Wert was determined as 17 mg/mL (≈ 55.3 mM).

(Values after patent EP0084756A1, “Trisubstituted oxaza compounds” (CIBA-GEIGY AG, priority 1982, dated 1983).)
